Patent publication US10172916B2, “Methods of treating heart failure with agonists of hypocretin receptor 2” (The Board of Trustees of the Leland Stanford Junior …, priority 2013, dated 2019)
Ends that are not written are not given here.

Test system: wild-type C57BL/6 mice stressed with angiotensin II+isoproterenol infusion (heart failure model)
Experiment: Orexin A minipump infusion in mice stressed with angiotensin II + isoproterenol, echocardiography
Type: in vivo, mouse
Description: Finally, to assess the potential of HCRTR2 as a novel therapeutic target for heart failure, wild-type mice were infused with saline (n=6) or the HCRTR2 agonist orexin A (n=7) for four weeks. At week two, all mice underwent infusion of angiotensin II and isoproterenol, neurohormones that mimic human heart failure. Echocardiography was performed blinded to drug infusion status at baseline, 2, 3 and 4 weeks (FIG. 3H).
Experimental mice were anesthetized with 1.5% isoflurane by a facemask. The Alzet osmotic minipumps (Model 2002 or 2004) from the Alzet Corporation (Cupertino, Calif., USA) were implanted subcutaneously in the back of mice, posterior to the scapulae. 14-week-old C57BL/6 mice were treated with either saline or orexin A (50 μg/kg/day) infusions using an Alzet (Cupertino, Calif.) osmotic minipump model 2004 (200 μl reservoir, 28-day release at 0.25 μl/hr) for a total of 4 weeks. At week 2, all mice were treated with angiotensin II (1.4 mg/kg/day) plus isoproterenol (15 mg/kg/day) infusion using an additional Alzet osmotic minipump, model 2002 (200 μl reservoir, 14-day release at 0.5 μl/hr) for two weeks, starting 2 weeks after initiation of the saline or orexin A infusion. Mice had echocardiography performed at baseline and weeks 2, 3 and 4.
For noninvasive echocardiography, mice were anesthetized with isoflurane via nose cone (maintenance: 1.5% isoflurane mixed with 1 L/minute 100% medical oxygen to obtain heart rate of 450±50 beats per minute). Mouse body temperature was monitored with a rectal thermometer. […]
Two-dimensional imaging (B-mode) was used to obtain a view of left and right ventricular movement during diastole and systole along the parasternal short axis. […] Early (E) wave was measured as the peak velocity during filling of the ventricle, and atrial (A) wave was measured as the peak velocity during atrial contraction, at the end of diastole. […] All data and images were saved and analyzed using a Vevo 2100 advanced cardiovascular package software with a semi-automated quantification of cardiac function (V 1.4.0 VisualSonics, Toronto, ON, Canada).

For “orexin A (QPLPDCCRQKTCSCRLYELLHGAGNHAAGILTL; ends and bridges not checked; cysteine pairing not given here; UniProt O43612 34-66, looked up) [HCRTR2 agonist]”, the “Ejection Fraction” value (WT mice, orexin A 50 μg/kg/day infusion for 4 weeks, angiotensin II+isoproterenol during latter 2 weeks, week 4, n=7, p=0.045 vs saline) was 56.6%+/−4.5, the “heart function in a mouse model of heart failure” value (summary statement) was “successful in rescuing heart function” and the “systolic function compared to saline controls” value (wild-type mice, four weeks infusion, angiotensin II and isoproterenol from week two, p=0.045) was “better systolic function compared to controls”.
